Data set [1] in a line: Plasma clearance in Beagle dog at 2 mg/kg. Format: ADME, organism-based, Canis lupus familiaris. The arrangement: dose 2 mg/kg.
Data set [2] can be described thus: Plasma clearance in squirrel monkey at 5 mg/kg. Format: ADME, organism-based. The settings on record: saimiri. Set-up: dose 5 mg/kg.
A short description of data set [3]: Terminal half life in Beagle dog at 10 mg/kg. Format: ADME, organism-based, Canis lupus familiaris. The arrangement: dose 10 mg/kg. The settings on record: in vivo, read-out: beta t1/2 (converted).
The nature of data set [4]: Volume of distribution at steady state in rat at 10 mg/kg. The class given is ADME, organism-based. The arrangement: dose 10 mg/kg. The settings on record: in vivo, read-out: Vdss.
The nature of data set [5]: Bioavailability in cynomolgus monkey. The class given is ADME, organism-based, Macaca fascicularis. The settings on record: in vivo.
The nature of data set [6]: Volume of distribution at steady state in squirrel monkey at 5 mg/kg. Format: ADME, organism-based. Set-up: dose 5 mg/kg. As to conditions: saimiri, in vivo, read-out: Vdss.
Data set [7] is described as follows: Terminal half life in cynomolgus monkey at 10 mg/kg. The class given is ADME, organism-based, Macaca fascicularis. Set-up: dose 10 mg/kg. As to conditions: in vivo, read-out: beta t1/2 (converted).
The nature of data set [8]: Plasma clearance in cynomolgus monkey at 2 mg/kg. Set-up: dose 2 mg/kg. Format: ADME, organism-based, Macaca fascicularis.
Data set [9] is described as follows: Terminal half life in squirrel monkey at 10 mg/kg. The settings on record: saimiri, in vivo, read-out: beta t1/2 (converted). Set-up: dose 10 mg/kg. The class given is ADME, organism-based.
Data set [10] is described as follows: Volume of distribution at steady state in cynomolgus monkey at 2 mg/kg. As to conditions: in vivo, read-out: Vdss. Set-up: dose 2 mg/kg. The class given is ADME, organism-based, Macaca fascicularis.
Data set [11] is described as follows: Cmax in squirrel monkey at 10 mg/kg. Format: ADME, organism-based. Set-up: dose 10 mg/kg. As to conditions: saimiri, in vivo.
The nature of data set [12]: Terminal half life in rat at 10 mg/kg. Format: ADME, organism-based. The arrangement: dose 10 mg/kg. As to conditions: in vivo, read-out: beta t1/2 (converted).
The nature of data set [13]: Bioavailability in squirrel monkey. Format: ADME, organism-based. As to conditions: saimiri, in vivo.
Data set [14] in a line: Volume of distribution at steady state in Beagle dog at 2 mg/kg. Format: ADME, organism-based, Canis lupus familiaris. Set-up: dose 2 mg/kg. The settings on record: in vivo, read-out: Vdss.
A short description of data set [15]: Cmax in rat at 30 mg/kg. The settings on record: in vivo. The arrangement: dose 30 mg/kg. The class given is ADME, organism-based.
A short description of data set [16]: Plasma clearance in rat at 10 mg/kg. The class given is ADME, organism-based. Set-up: dose 10 mg/kg.
Data set [17] can be described thus: Bioavailability in rat. Format: ADME, organism-based. The settings on record: in vivo.
A short description of data set [18]: Cmax in Beagle dog at 10 mg/kg. Format: ADME, organism-based, Canis lupus familiaris. Set-up: dose 10 mg/kg. As to conditions: in vivo.
A short description of data set [19]: Bioavailability in Beagle dog. As to conditions: in vivo. Format: ADME, organism-based, Canis lupus familiaris.
Data set [20] is described as follows: Cmax in cynomolgus monkey at 4 mg/kg. The class given is ADME, organism-based, Macaca fascicularis. As to conditions: in vivo. Set-up: dose 4 mg/kg.

For the compound `CC(C)c1nccc2c1c(Sc1ccc(Cl)c(Cl)c1)c1n2CC[C@@H]1CC(=O)O`, the clearance (as a rule, the rate of elimination divided by the concentration) in data set [1] turned out to be 4 mL/min/kg; in data set [2] it was 7.3 mL/min/kg; in data set [8], 21 mL/min/kg; in data set [16], 1.6 mL/min/kg. The half-life in data set [3] is 8.6 h; in data set [7], 13.8 h; in [9] it was 1.4 h; in data set [12], 8.3 h. Further, the Vd in data set [4] was found to be 0.47 L/kg; in [6] it was 0.78 L/kg; in data set [10], 1.2 L/kg; in data set [14], 1.2 L/kg. Besides, the bioavailability (usually the share of a dose that reaches the circulation, judged against a reference dose that is usually intravenous) came to 4% in data set [5], 43% in data set [13], 53% in [17] and 23% in data set [19]. Moreover, the highest concentration (Cmax) – broadly, the peak of the concentration-time curve – in [11] amounted to 8.5 µM; in [15], 28 µM; in [18], 9 µM; in [20], 0.06 µM.

The record behind these values is ChEMBL document CHEMBL1154001, “Discovery of potent and selective DP1 receptor antagonists in the azaindole series” (Bioorg Med Chem Lett, 2009).
